# Results from patent US20220226342A1, “COMPOSITIONS AND METHODS OF TREATING LIVER CANCERS” (The Johns Hopkins University, priority 2019, published 2022).
# Assays:
# [1] = test system: 40 HCC PDO lines; experiment: 10 μM drug screening, cell viability at 96 h (CellTiter-Glo); assay type: cell-based, human; settings: one HCC PDO line, 96 h
# Protocol: FIG. 2A-2E. 10 μM drug screening and IC50 calculation across 40 PDOs from 20 HCC patients. (2A). 10 μM drug screening of omacetaxine and sorafenib, regorafenib, lenvatinib and cabozantinib on 40 PDOs derived from 20 HCC patients. X axis—the 40 PDO lines, Y axis—Cell viability. (2B). IC50 curve of 40 PDO lines, x-axis—omacetaxine dose, Y axis—Relative cell viability. (2C). […] (2D). IC50 distribution of 40 HCC PDOs. X axis—PDO lines, Y axis—IC50 number of omacetaxine for each PDO.
# As readout of drug effectiveness, cell viability at 96 hours (h) was measured. White light microscopy images of one of the HCC PDO lines across 129 drugs was prepared. In FIG. 2E, each panel represents the image collected at 96 hours after treatment with each drug, at a concentration of 10 μM. […] To quantify survival, we implemented CellTiter-Glo, a luminescent cell viability assay. A total of 129 readings (one for each drug) was obtained for each of the 40 PDO lines, for a total of […] data points. […] Next, the inventors contrasted the survival of the […] HCC PDO lines when treated with omacetaxine versus current FDA approved drugs for HCC.
# [2] = test system: HCC patients; settings: clinical trial; cited from earlier work
# [3] = test system: HCC patients; settings: cited from earlier work
smiles,measurement,setting,value
CC(C)C[C@H](NC(=O)[C@H](Cc1ccccc1)NC(=O)c1cnccn1)B(O)O [bortezomib],white light microscopy image of organoids,[1],induce cell destruction
COc1cc2nccc(Oc3ccc(NC(=O)NC4CC4)c(Cl)c3)c2cc1C(N)=O [lenvatinib],efficacy compared to sorafenib,[2],non-inferior efficacy
CNC(=O)c1cc(Oc2ccc(NC(=O)Nc3ccc(Cl)c(C(F)(F)F)c3)cc2)ccn1 [sorafenib],white light microscopy image of organoids,[1],allow unrestricted organoid growth
same,median increase in life span,[3]; HCC patients,9.2 months
same,median survival of HCC patients,"[3]; SHARP trial, extended from 7.9",10.7 months
